Measurements reported in the C3SDB collision cross section collection.
Several values for one entry are separate records, joined by “and”; a condition that tells them apart may be missing. Equal entries are not always repeated.

settings: [M+H]+; instrument: DT; stepped-field

Row | collision cross section (N2) [Å²] | SMILES
1 | 292.3 | CCCCCCCC/C=C\C/C=C\C/C=C\CCCC(=O)OC[C@H](COP(=O)([O-])OCC[N+](C)(C)C)OC(=O)CCCCCCCCCCCCC [PC(34:3)]

same assay, conditions: [M-H]-; instrument: DT; stepped-field

Row | SMILES | collision cross section (N2)
2 | CCCCC/C=C\C/C=C\CCCCCCCCCCCC(=O)O[C@H](COC(=O)CCCCCCC/C=C\CCCCCC)COP(=O)(O)O[C@H]1C(O)C(O)C(O)[C@@H](O)C1O (some centres not stated) [PI(38:3)] | 301.7 Å² and 303.9 Å²
3 | CC/C=C\C/C=C\C/C=C\C/C=C\C/C=C\CCCC(=O)O[C@H](COCCCCCCCCCCCCCCCC)COP(=O)(O)OCCN [PE(o36:5)] | 270.4 Å²
4 | CCCCC/C=C\C/C=C\CCCCCCCCCCCC(=O)O[C@H](COC(=O)CCCCCCC/C=C\CCCCCC)COP(=O)(O)OC[C@H](N)C(=O)O [PS(38:3)] | 292.4 Å²
5 | CCCCC/C=C\C/C=C\C/C=C\CCCCCCC(=O)O[C@H](COC(=O)CCCCCCC/C=C\CCCCCC)COP(=O)(O)O[C@H]1C(O)C(O)C(O)[C@@H](O)C1O (some centres not stated) [PI(36:4)] | 297.2 Å²
6 | CCCCCC/C=C\CCCCCCCC(=O)OC[C@@H](O)COP(=O)(O)OCCN [LPE(16:1)] | 201.1 Å²
7 | CCCCCCCCCC/C=C\CCCCCCCCCC(=O)O[C@H](COC(=O)CCCCCCCCCCCCC)COP(=O)(O)OC[C@H](N)C(=O)O [PS(36:1)] | 289.4 Å²
8 | CCCCC/C=C\C/C=C\CCCCCCCCCCCC(=O)O[C@H](COC(=O)CCCCCCC/C=C\C/C=C\CCCCC)COP(=O)(O)OCCN [PE(40:4)] | 287.9 Å² and 287.8 Å²

Now from value to compound:

Row | collision cross section (N2) | SMILES
9 | 210.1 Å² | CCCCCC/C=C\CCCCCCCCCC(=O)O[C@H](CO)COP(=O)(O)OCCN [LPE(18:1)]
10 | 278 Å² | CC/C=C\C/C=C\C/C=C\C/C=C\CCCCC(=O)OC[C@H](COP(=O)(O)OC[C@@H](O)CO)OC(=O)CCCCCCCCCCCCCCCCC [PG(36:4)]
11 | 303.6 Å² and 300.7 Å² | CC/C=C\C/C=C\C/C=C\C/C=C\CCCCC(=O)OC[C@H](COP(=O)(O)O[C@H]1C(O)C(O)C(O)[C@@H](O)C1O)OC(=O)CCCCCCCCCCCCCCCCCCC (some centres not stated) [PI(38:4)]

settings: [M+HCOO]-; instrument: DT; single field, calibrated with Agilent tune mix (Agilent)

Row | collision cross section (N2) [Å²] | SMILES
12 | 283.5 | CCCCCCCC/C=C\C/C=C\C/C=C\CCCC(=O)OC[C@H](COP(=O)([O-])OCC[N+](C)(C)C)OC(=O)CCCCCCCCCCCCC [PC(34:3)]

same assay, conditions: [M+H]+; instrument: DT; single field, calibrated with Agilent tune mix (Agilent)

Row | SMILES | collision cross section (N2) [Å²]
13 | CCCCC/C=C\C/C=C\CCCCCCCCCCCC(=O)O[C@H](COC(=O)CCCCCCC/C=C\CCCCCC)COP(=O)(O)O[C@H]1C(O)C(O)C(O)[C@@H](O)C1O (some centres not stated) [PI(38:3)] | 304.2
14 | CCCCC/C=C\C/C=C\C/C=C\CCCCCCC(=O)O[C@H](COC(=O)CCCCCCC/C=C\CCCCCC)COP(=O)(O)O[C@H]1C(O)C(O)C(O)[C@@H](O)C1O (some centres not stated) [PI(36:4)] | 296.5
15 | CCCCCCCCCC/C=C\CCCCCCCCCC(=O)O[C@H](COC(=O)CCCCCCCCCCCCC)COP(=O)(O)OC[C@H](N)C(=O)O [PS(36:1)] | 286.2
16 | CCCCC/C=C\C/C=C\CCCCCCCCCCCC(=O)O[C@H](COC(=O)CCCCCCC/C=C\C/C=C\CCCCC)COP(=O)(O)OCCN [PE(40:4)] | 288.1

The next lines start with the values.

Row | collision cross section (N2) [Å²] | SMILES
17 | 215.8 | CCCCCC/C=C\CCCCCCCCCC(=O)O[C@H](CO)COP(=O)(O)OCCN [LPE(18:1)]
18 | 281.8 | CCCCCCCC/C=C\C/C=C\C/C=C\CCCC(=O)OC[C@H](COP(=O)([O-])OCC[N+](C)(C)C)OC(=O)CCCCCCCCCCCCC [PC(34:3)]
19 | 302.3 | CC/C=C\C/C=C\C/C=C\C/C=C\CCCCC(=O)OC[C@H](COP(=O)(O)O[C@H]1C(O)C(O)C(O)[C@@H](O)C1O)OC(=O)CCCCCCCCCCCCCCCCCCC (some centres not stated) [PI(38:4)]

same assay, conditions: [M+NH4]+; instrument: DT; single field, calibrated with Agilent tune mix (Agilent)

Row | SMILES | collision cross section (N2) [Å²]
20 | CCCCC/C=C\C/C=C\CCCCCCCCCCCC(=O)O[C@H](COC(=O)CCCCCCC/C=C\CCCCCC)COP(=O)(O)O[C@H]1C(O)C(O)C(O)[C@@H](O)C1O (some centres not stated) [PI(38:3)] | 306
21 | CCCCC/C=C\C/C=C\C/C=C\CCCCCCC(=O)O[C@H](COC(=O)CCCCCCC/C=C\CCCCCC)COP(=O)(O)O[C@H]1C(O)C(O)C(O)[C@@H](O)C1O (some centres not stated) [PI(36:4)] | 297.3

More lines, now with the values ahead:

Row | collision cross section (N2) [Å²] | SMILES
22 | 283.4 | CC/C=C\C/C=C\C/C=C\C/C=C\CCCCC(=O)OC[C@H](COP(=O)(O)OC[C@@H](O)CO)OC(=O)CCCCCCCCCCCCCCCCC [PG(36:4)]
23 | 304 | CC/C=C\C/C=C\C/C=C\C/C=C\CCCCC(=O)OC[C@H](COP(=O)(O)O[C@H]1C(O)C(O)C(O)[C@@H](O)C1O)OC(=O)CCCCCCCCCCCCCCCCCCC (some centres not stated) [PI(38:4)]

same assay, conditions: [M+Na]+; instrument: DT; single field, calibrated with Agilent tune mix (Agilent)

Row | collision cross section (N2) [Å²] | SMILES
24 | 222.1 | CCCCCC/C=C\CCCCCCCCCC(=O)O[C@H](CO)COP(=O)(O)OCCN [LPE(18:1)]
25 | 303.1 | CCCCC/C=C\C/C=C\CCCCCCCCCCCC(=O)O[C@H](COC(=O)CCCCCCC/C=C\CCCCCC)COP(=O)(O)O[C@H]1C(O)C(O)C(O)[C@@H](O)C1O (some centres not stated) [PI(38:3)]
26 | 294.5 | CCCCC/C=C\C/C=C\C/C=C\CCCCCCC(=O)O[C@H](COC(=O)CCCCCCC/C=C\CCCCCC)COP(=O)(O)O[C@H]1C(O)C(O)C(O)[C@@H](O)C1O (some centres not stated) [PI(36:4)]
27 | 287.5 | CCCCCCCCCC/C=C\CCCCCCCCCC(=O)O[C@H](COC(=O)CCCCCCCCCCCCC)COP(=O)(O)OC[C@H](N)C(=O)O [PS(36:1)]
28 | 293.3 | CCCCC/C=C\C/C=C\CCCCCCCCCCCC(=O)O[C@H](COC(=O)CCCCCCC/C=C\C/C=C\CCCCC)COP(=O)(O)OCCN [PE(40:4)]

same assay, conditions: [M-H]-; instrument: DT; single field, calibrated with Agilent tune mix (Agilent)

Row | SMILES | collision cross section (N2) [Å²]
29 | CCCCC/C=C\C/C=C\CCCCCCCCCCCC(=O)O[C@H](COC(=O)CCCCCCC/C=C\CCCCCC)COP(=O)(O)O[C@H]1C(O)C(O)C(O)[C@@H](O)C1O (some centres not stated) [PI(38:3)] | 293.7
30 | CCCCCC/C=C\CCCCCCCC(=O)OC[C@@H](O)COP(=O)(O)OCCN [LPE(16:1)] | 203.8
31 | CCCCCCCCCC/C=C\CCCCCCCCCC(=O)O[C@H](COC(=O)CCCCCCCCCCCCC)COP(=O)(O)OC[C@H](N)C(=O)O [PS(36:1)] | 279.1
32 | CCCCC/C=C\C/C=C\CCCCCCCCCCCC(=O)O[C@H](COC(=O)CCCCCCC/C=C\C/C=C\CCCCC)COP(=O)(O)OCCN [PE(40:4)] | 278.5

Further lines, results first:

Row | collision cross section (N2) [Å²] | SMILES
33 | 211.3 | CCCCCC/C=C\CCCCCCCCCC(=O)O[C@H](CO)COP(=O)(O)OCCN [LPE(18:1)]
34 | 292.9 | CC/C=C\C/C=C\C/C=C\C/C=C\CCCCC(=O)OC[C@H](COP(=O)(O)O[C@H]1C(O)C(O)C(O)[C@@H](O)C1O)OC(=O)CCCCCCCCCCCCCCCCCCC (some centres not stated) [PI(38:4)]

settings: [M+H]+; instrument: TW; calibrated with phosphatidylcholines (ESI+) and phosphatidylethanolamines (ESI-)

Row | collision cross section (N2) [Å²] | SMILES
35 | 214.2 | CCCCCC/C=C\CCCCCCCCCC(=O)O[C@H](CO)COP(=O)(O)OCCN [LPE(18:1)]
36 | 278.8 | CCCCCCCC/C=C\C/C=C\C/C=C\CCCC(=O)OC[C@H](COP(=O)([O-])OCC[N+](C)(C)C)OC(=O)CCCCCCCCCCCCC [PC(34:3)]
37 | 286.8 | CCCCC/C=C\C/C=C\CCCCCCCCCCCC(=O)O[C@H](COC(=O)CCCCCCC/C=C\C/C=C\CCCCC)COP(=O)(O)OCCN [PE(40:4)]

same assay, conditions: [M+Na]+; instrument: TW; calibrated with phosphatidylcholines (ESI+) and phosphatidylethanolamines (ESI-)

Row | SMILES | collision cross section (N2) [Å²]
38 | CCCCC/C=C\C/C=C\CCCCCCCCCCCC(=O)O[C@H](COC(=O)CCCCCCC/C=C\CCCCCC)COP(=O)(O)O[C@H]1C(O)C(O)C(O)[C@@H](O)C1O (some centres not stated) [PI(38:3)] | 298.5
39 | CCCCC/C=C\C/C=C\C/C=C\CCCCCCC(=O)O[C@H](COC(=O)CCCCCCC/C=C\CCCCCC)COP(=O)(O)O[C@H]1C(O)C(O)C(O)[C@@H](O)C1O (some centres not stated) [PI(36:4)] | 290.5

Now from value to compound:

Row | collision cross section (N2) [Å²] | SMILES
40 | 219 | CCCCCC/C=C\CCCCCCCCCC(=O)O[C@H](CO)COP(=O)(O)OCCN [LPE(18:1)]
41 | 281 | CC/C=C\C/C=C\C/C=C\C/C=C\CCCCC(=O)OC[C@H](COP(=O)(O)OC[C@@H](O)CO)OC(=O)CCCCCCCCCCCCCCCCC [PG(36:4)]
42 | 297.4 | CC/C=C\C/C=C\C/C=C\C/C=C\CCCCC(=O)OC[C@H](COP(=O)(O)O[C@H]1C(O)C(O)C(O)[C@@H](O)C1O)OC(=O)CCCCCCCCCCCCCCCCCCC (some centres not stated) [PI(38:4)]

same assay, conditions: [M-H]-; instrument: TW; calibrated with phosphatidylcholines (ESI+) and phosphatidylethanolamines (ESI-)

Row | SMILES | collision cross section (N2) [Å²]
43 | CCCCC/C=C\C/C=C\CCCCCCCCCCCC(=O)O[C@H](COC(=O)CCCCCCC/C=C\CCCCCC)COP(=O)(O)O[C@H]1C(O)C(O)C(O)[C@@H](O)C1O (some centres not stated) [PI(38:3)] | 293
44 | CCCCC/C=C\C/C=C\CCCCCCCCCCCC(=O)O[C@H](COC(=O)CCCCCCC/C=C\CCCCCC)COP(=O)(O)OC[C@H](N)C(=O)O [PS(38:3)] | 281.7
45 | CCCCC/C=C\C/C=C\C/C=C\CCCCCCC(=O)O[C@H](COC(=O)CCCCCCC/C=C\CCCCCC)COP(=O)(O)O[C@H]1C(O)C(O)C(O)[C@@H](O)C1O (some centres not stated) [PI(36:4)] | 286.1
46 | CCCCCCCCCC/C=C\CCCCCCCCCC(=O)O[C@H](COC(=O)CCCCCCCCCCCCC)COP(=O)(O)OC[C@H](N)C(=O)O [PS(36:1)] | 278.8
47 | CCCCC/C=C\C/C=C\CCCCCCCCCCCC(=O)O[C@H](COC(=O)CCCCCCC/C=C\C/C=C\CCCCC)COP(=O)(O)OCCN [PE(40:4)] | 277.3

The remaining lines, values ahead:

Row | collision cross section (N2) [Å²] | SMILES
48 | 210.2 | CCCCCC/C=C\CCCCCCCCCC(=O)O[C@H](CO)COP(=O)(O)OCCN [LPE(18:1)]
49 | 271.3 | CC/C=C\C/C=C\C/C=C\C/C=C\CCCCC(=O)OC[C@H](COP(=O)(O)OC[C@@H](O)CO)OC(=O)CCCCCCCCCCCCCCCCC [PG(36:4)]
50 | 292.1 | CC/C=C\C/C=C\C/C=C\C/C=C\CCCCC(=O)OC[C@H](COP(=O)(O)O[C@H]1C(O)C(O)C(O)[C@@H](O)C1O)OC(=O)CCCCCCCCCCCCCCCCCCC (some centres not stated) [PI(38:4)]

settings: [M+K]+; instrument: DT; stepped-field

Row | collision cross section (N2) [Å²] | SMILES
51 | 292.4 | CCCCCCCC/C=C\C/C=C\C/C=C\CCCC(=O)OC[C@H](COP(=O)([O-])OCC[N+](C)(C)C)OC(=O)CCCCCCCCCCCCC [PC(34:3)]

same assay, conditions: [M+Na]+; instrument: DT; stepped-field

Row | collision cross section (N2) [Å²] | SMILES
52 | 279.2 | CC/C=C\C/C=C\C/C=C\C/C=C\C/C=C\CCCC(=O)O[C@H](COCCCCCCCCCCCCCCCC)COP(=O)(O)OCCN [PE(o36:5)]
